In patent US9200009B2, “Polycyclic pyridone derivative having integrase inhibitory activity” (Shionogi & Co., Ltd., priority 2011, dated 2015):

Legend:
[1] = tested on: HIV virus; test: Anti-HIV activity in MT-4 cells, MTT (Experimental Example 2); format: cell-based; details: Human immunodeficiency virus 1, MT4, 96 h, 50% HIV inhibition concentration, 4 days incubation
Description: Previously, a series of two-fold dilution on test samples were carried out in a 96-well plate (50 μL/well). Two plates were made for measuring anti-HIV activity and measuring cytotoxicity. For each agent, measurement in duplicate was carried out. An MT-4 cell suspension of 2.5×10^5/mL was dispensed at 100 μL/well onto the 96-well plate containing the test samples. An HIV virus solution was dispensed at 50 μL/well onto the 96-well plate containing the test samples and the cell. To the plate for measuring cytotoxicity, a culture solution was dispensed at 50 μL/well. It was mixed by a plate mixer, and then incubated in a CO2 incubator for 4 days. […] Thirty microliters of a MTT (3-(4,5-dimethylthiazol-2-yl)-2,5-diphenyltetrazolium bromide) solution was dispensed to each well.
A reaction was allowed to occur in a CO2 incubator for 1 hour. From each well, 150 μL of the supernatant was removed such that cells are not sucked. One-hundred and fifty microliters of a cell lysis solution was added thereto, and then it was mixed well by a plate mixer until the whole cells are lysed. The mixed 96-well plates were measured by a microplate reader at two wavelengths, 560 nm/690 nm. Based on the following calculation formula, 50% HIV inhibition concentration (EC50) was calculated. […]
Based on the following calculation formula, selectivity index was calculated. […]

[2] = target: integrase (Human immunodeficiency virus type 1 group M subtype B, UniProt P04585); test: Integrase inhibitory activity (Experimental Example 1); format: biochemical, HIV; details: integrase strand transfer ELISA, absorbance OD 405 nm
Description: (1) Preparation of DNA Solution
By the same method as that described in Experimental Example 1 of Patent Document 2, a substrate DNA solution (2 pmol/μl) and a target DNA solution (5 pmol/μl) were prepared. […] Each sequence of a substrate DNA and a target DNA is as described in the same Experimental Example.
(2) Measurement of Inhibition Rate (IC50 Value)
Onto Immobilizer—Streptavidin Plates (manufactured by NUNC) was added 100 μl of a substrate DNA solution (2 pmol/μl). After adsorbing at room temperature for 60 minutes under shaking, it was washed with a phosphate buffer two times.
Then, to each well prepared as described above were added 51 μl of a reaction solution prepared from 12 μl of a buffer (composition: 150 mM MOPS (pH 7.2), 75 mM MnCl2, 50 mM 2-mercaptoethanol, 25% glycerol, 500 μg/ml bovine serum albumin-fraction V) and 39 μl of distilled water. Then, 9 μl of an integrase solution (30 pmol) was added, and the mixture was mixed well. To a well as a negative control (NC) was added 9 μl of a diluting solution (composition: 50 mM Hepes (pH 8.0), 10 mM DTT, 10% Glycerol, 0.5 M NaCl), and this was mixed well using a plate mixer.
After the plate was incubated at 30° C. for 60 minutes, the reaction solution was discarded, followed by washing with 200 μl of a washing buffer (composition: 150 mM MOPS (pH 7.2), 50 mM 2-mercaptoethanol, 25% glycerol, 500 μg/ml bovine serum albumin-fraction V) three times.
Then, to each well were added 53 μl of a reaction solution prepared from 12 μl of a buffer (composition: 150 mM MOPS (pH 7.2), 75 mM MgCl2, 50 mM 2-mercaptoethanol, 25% glycerol, 500 μg/ml bovine serum albumin-fraction V) and 41 μl of distilled water. Further, 6 μl of a solution of a test compound in DMSO was added to each well, and 6 μl of DMSO was added to wells as a positive control (PC) and a negative control (NC), followed by mixing well using a plate mixer. After the plate was incubated at 30° C. for 60 minutes, 1 μl of a target DNA (5 pmol/μl) was added, and this was mixed well using a plate mixer.
After each plate was incubated at 30° C. for 10 minutes, the reaction solution was discarded, followed by washing with a phosphate buffer two times. Then, an anti-digoxigenin antibody labeled with alkaline phosphatase (sheep Fab fragment: manufactured by Boehringer) was diluted 2000-fold with an antibody diluting solution, 100 μl of the diluent was added to bind at 30° C. for 1 hour, and this was washed successively with a phosphate buffer containing 0.05% Tween 20 two times, and a phosphate buffer two times. […] C abs.: Absorbance of well of compound NC abs.: Absorbance of NC PC abs.: Absorbance of PC

Compound	EC50 [1] [nM]	IC50 [2] [nM]
C[C@@H]1CCO[C@H]2Cn3cc(-c4ncc(Cc5ccc(F)cc5F)s4)c(=O)c(O)c3C(=O)N12 [Example 2]	2.8	2
C[C@@H]1CCO[C@H]2Cn3cc(-c4nnc(Cc5ccc(F)cc5F)s4)c(=O)c(O)c3C(=O)N12 [Example 4]	1.7	1.3
C[C@@H]1CCO[C@H]2Cn3cc(-c4nnc(Cc5ccc(F)cc5)s4)c(=O)c(O)c3C(=O)N12 [Example 3]	–	3.8
C[C@@H]1CCO[C@H]2Cn3cc(-c4ncc(Cc5ccc(F)cc5)s4)c(=O)c(O)c3C(=O)N12 [Example 1]	–	3.9
